# Experimental data published in patent publication US20200360471A1, “METHODS OF TREATING AND PREVENTING VIRAL INFECTIONS” (priority 2017, published 2020).
# Peptide text beside a SMILES is read from it.
# Experiments:
# TC-1 tumor [1] = test: Tumor outgrowth in TC-1 mice in presence or absence of anti-neutrophil antibody aLy6G; type: in vivo
# Description: 10, 12, and 14. Tumor growth was measured at days 11, 13, 15, 17, 20, and 22.
# TLR9 = test: TLR9-mediated interferon responses in PBMC cultures (IFN-α ELISA); type: cell-based, human
# Description: CpG motifs are present in a variety of DNA viruses and CpG signaling is relevant to host defense against viral infections. Briefly, PBMC primary cultures were prepared from 2 donors. […] E. coli ssDNA (5 μg/mL) or PBS (unstimulated). The readouts for IFN-α in cell supernatant were measured by ELISA.
# TLR7 = test: imiquimod-induced cytokine responses in PBMC cultures with peptide pre-treatment; type: cell-based, human
# Description: (§1) Primary cell cultures were prepared in RPMI including 5% autologous plasma. Isolated PBMC cells were cultured in 96-well plates at a density of 0.5×10^6cells/well at 37° C., under humidified 5% CO2.
# (§2) IL-1β, TNFα, IL-6 and IL-8 were measured simultaneously with a fixed electrochemoluminescence platform based on the sandwich ELISA principle of capture and detection antibodies, produced by MESO SCALE DISCOVERY (MSD, MESO SCALE QUICKPLEX SQ120). The applied assay was the V-PLEX PLUS pro-inflammatory cytokine panel II, including IL-1β, TNFα, IL-6 and IL-8. This assay includes manufacturer-provided control samples with indicated nominal values for comparison. These lyophilized controls, i.e. freeze-dried controls for IL-1β, TNFα, IL-6, IL-8, were prepared freshly at the time of use. QC samples were prepared from the calibrator at 3 different concentrations along the standard curve as multiple aliquots from a single batch and maintained at −20° C. Low, medium and high concentration controls were included in every multiplex assay run to control intra- and inter-assay variation. V-PLEX panels are specific for the detection of human chemokines and cytokines, and combinations have been validated by the manufacturer, to ensure no cross-reactivity.
# (§3) IFNα was quantified by a sandwich ELISA based on specific capture and detection antibodies for various matrices (MABTECH), according to the manufacturer's instructions. QC samples were prepared from the calibrator at 3 different concentrations along the standard curve as multiple aliquots from a single batch and maintained at −20° C.
# (§4) IFNβ was quantified by a sandwich ELISA based on specific capture and detection antibodies for various matrices (PBL ASSAY SCIENCE), according to the manufacturer's instructions. QC samples were prepared from the calibrator at 3 different concentrations along the standard curve as multiple aliquots from a single batch and maintained at −20° C. freezer.
# (§5) Briefly, PBMC primary cultures were prepared from 4 healthy donors (2 males, 2 females) as described above. […] The cultures were prepared in duplicate and the readouts for pan-IFNα and IFNβ (ELISA) were measured once. Five-point concentration-response curves were constructed for the various treatment conditions in the PBMC cultures, freshly isolated from 4 subjects.
# IL-1β, IL-8 = test: Biomarkers (qPCR) in wart biopsies; type: in vivo, human; settings: during the study period
# Description: The treatment period was from day 0 till day 84. During the treatment period subjects visited the clinical unit on days 0, 14, 28, 56 and 84. A fixed dose of omiganan or placebo was applied once daily. Two follow up visits were scheduled on days 126 and 168. During study execution, vital signs were measured on days 0, 14, 28, 56 and 84. Pharmacodynamic assessments were performed on day 0 (pre-dose), 14, 28, 56 and 84, respectively. Punch biopsies were performed at the screening and on days 56 and 168. Subjects were dosed 84 consecutive days with approximately 24 hours between each treatment.
# Biomarkers in biopsy. Biopsies were taken from biopsy wart 1 at screening, biopsy wart 2 at EOT and target wart at EOS. Biopsies were only taken when the warts were still visible.
# HPVS PsV = settings: read-out: IC50, inhibition of uptake of HPVS PsV; PsV 1:6000 dilution, 293TT cells
# Description: Pseudovirus (PsV) of HPVS was prepared using method described by Buck et al, (Journal of Virology, January 2004; 751-757) and used as a model HPV in this study. The PsV stocks were prepared by co-transfecting human 293TT cells with HPVS viral plasmid p5Shell containing codon-modified papillomavirus capsid genes for L1 and L2 proteins, and pcLucF reporter plasmid containing the luciferase gene for detecting viral infection. The cell lysates containing the capsidized virus was used as the PsV stock. Optimal PsV dilution factor was determined based on the luciferase activity in 293TT cells infected with serially diluted HPVS PsV.
# Data were collected on a Molecular Devices Flexstation 3 Microplate Reader using Softmax Pro v5.4.4. Data analysis was performed on Prism software using four parameter logistic model. […] Furin Inhibitor I was used as a positive control for HPVS PsV inhibition since it blocks the viral entry into host cells.
# Two runs were performed for each dilution level.
# TC-1 tumor [2] = test: Tumor outgrowth and flow cytometry after intratumoral injections in TC-1 mice; type: in vivo
# Description: Tumor growth was measured at days 9, 10, 12, 14, and 16.
# Tumor growth was measured at day 9 (one day before injection), 10, 12, 14 and day 16 (at sacrifice).
# TLR3/RIG-1/Mda5 = test: polyI:C-induced cytokine responses in PBMC cultures with peptide pre-treatment; type: cell-based, human; settings: 5 or 25 μg/mL peptide, 30 min pre-treatment, 24 hrs
# Description: as §1, §2, §3, §4, §5
# [3] = 6.25 or 25 μg/mL omiganan 30min pre-incubation, 24hr
# [4] = 5 or 25 μg/mL peptide, 30 min pre-treatment, 24 hrs
# [5] = right-shift of imiquimod concentration response curves
smiles,measurement,setting,value
"CC[C@H](C)[C@H](N)C(=O)N[C@@H](CC(C)C)C(=O)N[C@@H](CCCNC(=N)N)C(=O)N[C@@H](Cc1c[nH]c2ccccc12)C(=O)N1CCC[C@H]1C(=O)N[C@@H](Cc1c[nH]c2ccccc12)C(=O)N[C@@H](Cc1c[nH]c2ccccc12)C(=O)N1CCC[C@H]1C(=O)N[C@@H](Cc1c[nH]c2ccccc12)C(=O)N[C@@H](CCCNC(=N)N)C(=O)N[C@@H](CCCNC(=N)N)C(=O)N[C@@H](CCCCN)C(N)=O [omiganan, I L R W P W W P W R R K] (H-ILRWPWWPWRRK-NH2)",tumor outgrowth compared to PBS-treated mice,"TC-1 tumor [1]; intratumoral on days 9, 11, 14, 16, 18, without aLy6G",reduction in tumor outgrowth
same,reduction in tumor outgrowth,TC-1 tumor [1]; omiganan treated group also treated with aLy6G,not observed
same,CpG-A IFN-α responses,TLR9; [3],strongly enhanced
same,CpG-B IFN-α responses,TLR9; [3],did so strongly
same,CpG-C IFN-α responses,TLR9; [3],concentration-dependently enhanced
same,ssDNA-driven IFN-α responses,"TLR9; omiganan pre-incubation, E. coli ssDNA 5 μg/mL","initial inhibition of cytokine release at low omiganan concentrations, and an enhancement of cytokine release at higher omiganan concentrations"
same,IL-6 responses to imiquimod (TLR7),TLR7; [4],inhibited
same,TNFα responses to imiquimod (TLR7),TLR7; [4],inhibited
same,interferon responses in the presence of imiquimod,"TLR7; 5 or 25 μg/mL peptide, 30 min pre-treatment, 24 hrs, PBMC of 4 donors",induced strong interferon responses
same,IL-1(3 responses to imiquimod (TLR7)),TLR7; [5],inhibited
same,IL-8 responses to imiquimod (TLR7),TLR7; [5],inhibited
same,amount of IL-1β in biopsies,"IL-1β, IL-8",increased
same,amount of IL-8 in biopsies,"IL-1β, IL-8",increased
same,IC50,HPVS PsV,23.5 to 29.1 µM
same,tumor outgrowth compared to PBS-treated mice,"TC-1 tumor [2]; 30 nmol intratumoral on days 10, 12, 14",reduction in tumor outgrowth
same,CD11c expression of Ly6C-low macrophages in TC-1 tumors (macrophage phenotype),TC-1 tumor [2]; flow cytometry after three intratumoral injections,lower CD11c expression
same,IL-6 responses to polyI:C (TLR3/RIG-1/Mda5),TLR3/RIG-1/Mda5,did not significantly affect
same,TNFα responses to polyI:C (TLR3/RIG-1/Mda5),TLR3/RIG-1/Mda5,did not significantly affect
same,polyI:C-driven IL-1β release,TLR3/RIG-1/Mda5,did not significantly affect
same,spontaneous and polyI:C-driven IL-8 release,TLR3/RIG-1/Mda5,strongly inhibited
same,interferon responses induced by polyI:C stimulation,TLR3/RIG-1/Mda5; PBMC of 4 donors,enhanced
